Data as given in the NIST ThermoML archive (doi:10.1016/j.jct.2017.01.007).
Several values for one entry are separate records, joined by “and”; a condition that tells them apart may be missing. Identical values can stand only once. Numbers after ± are expanded uncertainties.

Details: Pendant drop shape

surface tension liquid-gas (283.2 K): 74.8 ± 2.3 mN/m and 74.83 ± 2.1 mN/m
surface tension liquid-gas (288.2 K): 73.65 ± 2.3 mN/m and 73.67 ± 2.1 mN/m
surface tension liquid-gas (293.2 K): 73.07 ± 2.1 mN/m and 73.03 ± 2.1 mN/m
surface tension liquid-gas (298.2 K): 72.21 ± 2.2 mN/m and 72.13 ± 2.1 mN/m
SMILES: O [water]
